We go through eleven molecules from US5587389A, “Substituted heteroarylaklylthiopyridines for controlling helicobacter bacteria” (BYK Gulden Lomberg Chemische Fabrik GmbH, priority 1993, dated 1996).

The MIC is the smallest concentration in the dilution series that meets the test's criterion for growth inhibition. A lower MIC goes with inhibition by little substance.

For the first test, the system named is Helicobacter pylori. The experiment in a line: activity against Helicobacter pylori (MIC), modified method of Iwahi et al., Columbia agar, growth period of 4 days. It is filed as cell-based. Particulars: Columbia agar (Oxoid). How it is done:
The compounds of the formula I were tested for their activity against Helicobacter pylori following a modification of the method described by Tomoyuki Iwahi et al. (Antimicrobial Agents and Chemotherapy, 1991, 490-496) using Columbia agar (Oxoid) over a growth period of 4 days. The MIC values listed in Table 2 below were found here for the tested compounds (the compound numbers shown agree with the compound numbers in the description).
With `Cc1c(SCCc2ccccn2)ccnc1CSc1nc2ccccc2[nH]1` [Compound 17], the “MIC Value” is ≤ 1.0 µg/mL.

Staying with this test, now noted: Helicobacter pylori, 96 h, Columbia agar (Oxoid).
Take `Cc1c(SCc2ccco2)ccnc1CSc1nc2ccccc2[nH]1` [Compound 1, 2-{[[4-(2-Furylmethylthio)-3-methyl,2-pyridinyl]methyl]thio}-1H-benzimidazole]: the minimal inhibitory concentration (MIC) is ≤ 1 µg/mL.
Same read-out and setting: next, `COc1c(SCc2ccco2)ccnc1CSc1nc2ccccc2[nH]1` [Compound 2, 2-{[[4-(2-Furylmethylthio)-3-methoxy-2-pyridinyl]methyl]thio}-1H-benzimidazole]: ≤ 1 µg/mL.
Same read-out and setting: next, `Cc1c(SCc2cccs2)ccnc1CSc1nc2ccccc2[nH]1` [Compound 5, 2-{[[3-Methyl-4-(2-thienylmethylthio)-2-pyridinyl]methyl]thio}-1H-benzimidazole]: ≤ 1 µg/mL; `Cc1c(SCc2ccsc2)ccnc1CSc1nc2ccccc2[nH]1` [Compound 6, 2-{[[3-Methyl-4-(3-thienylmethylthio)-2-pyridinyl]methyl]thio}-1H-benzimidazole]: ≤ 1 µg/mL; `c1csc(CSc2ccnc(CSc3nc4ccccc4[nH]3)c2)c1` [Compound 8, 2-{[[4-(2-Thienylmethylthio)-2,pyridinyl]methyl]thio}-1H-benzimidazole]: ≤ 1 µg/mL.
On the same count and under the same terms, next, `Cc1c(SCc2ccco2)ccnc1CSc1nc2ccccc2[nH]1.Cl.Cl` [Compound 12, 2-{[[4-(2-Furylmethylthio)-3-methyl-2-pyridinyl]methyl]thio}-1H-benzimidazole dihydrochloride]: ≤ 1 µg/mL; `COc1ccnc(CSc2ccnc(CSc3nc4ccccc4[nH]3)c2C)c1OC` [Compound 16, 2-{[[4-3,4-Dimethoxy-2-pyridinylmethylthiol-3-methyl-2-pyridinyl]methyl]thio}-1H-benzimidazole]: ≤ 1 µg/mL; `Cc1c(SCCCn2ccnc2)ccnc1CSc1nc2ccccc2[nH]1` [Compound 18, 2-{[[-4-[3-(Imidazol-1-yl)propylthio]-3-methyl-2-pyridinyl]methyl]thio}-1H-benzimidazole]: ≤ 1 µg/mL.
With `Cc1c(SCCCn2ccnc2C)ccnc1CSc1nc2ccccc2[nH]1` [Compound 19, 2-{[[4-[3-(2-Methylimidazol-1-yl)propylthio]-3-methyl-2-pyridinyl]methyl]thio}-1H-benzimidazole], the MIC is ≤ 1 µg/mL.
Same read-out and setting: to `Cc1c(SCc2ccco2)ccnc1C[S+]([O-])c1nc2ccccc2[nH]1` (centres unmarked) [Compound 20, 2-{[[4-(2-Furylmethylthio)-3-methyl-2-pyridinyl]methyl]sulfinyl}-1H-benzimidazole] belongs ≤ 1 µg/mL.
